How the values were obtained:
[1] = source: EPAR summary for Lyrica; cited from earlier work
[2] = system: patients with newly reported Acute Coronary Syndrome (ACS); experiment: Study 5: randomized controlled trial, Ticagrelor with QFM (active group) versus Ticagrelor with e-diary (control group); format: in vivo, human
From the text: The study design was two different patient groups with at least eighty patients in each group. The group using the invention, hereafter called the active group, used their own mobile phones to use the QFM described above and the actual drug Ticagrelor. The other group, hereafter called the control group, used their own mobile phones with just an e-diary (control app) and the actual drug Ticagrelor.
Study design: Randomized Controlled Trial with two different patient groups
Intervention to evaluate: The invention using the above described QFM in the patients mobile phones, integrated with the actual drug
Actual used drug: Ticagrelor (Brilique)
Control: e-diary. The e-diary consisted of the following items and functionalities, enabling data for study evaluation • The questions concerning adherence to the specific drug, being able to answer whether the patient took the drug in the morning and/or in the evening, for the actual day and the day before. • A reminder through a text message if the patient missed to answer the adherence questions during one day
Patient group: Patients with newly reported Acute Coronary Syndrome (ACS).
Number of patients in total: 166
Length of using the invention: Six months
Primary objective: Assess the non-adherence to the drug according to the prescription recommendation in patients using the invention compared to patients who only use the control-app
The primary endpoint definition was according to the following: Composite endpoint of adherence failure- or treatment gap events registered by patients • Adherence failure events; • More than 14% missed doses during an observation cycle of 7 days. The first missed dose of the drug initiates an observation cycle of 1 week. If a second missed dose is registered within this week an adherence failure event is registered. The third missed dose initiates a new observation cycle, and the process restarts. • Treatment gap events; • patient reported gaps of more than 4 consecutive doses
Secondary objectives: Comparison between active group and control group concerning; • Adherence to treatment of the specific drug • Cardiovascular risk factors: • BMI • Physical activity • Blood pressure • LDL-cholesterol • Smoking cessation • Quality of life (EQ5D-VAS)
The patients with ACS was randomly selected to one of the study arms. After inclusion patients in the active group used the described QFM in relation to the actual drug during the actual period of time.

[3] = Active group (QFM + Ticagrelor)
[4] = Control group (e-diary + Ticagrelor)

SMILES | Common side-effects which may affect more than 1 person in 100 (among others) [1] | Very common side-effects which may affect more than 1 person in 10 [1] | LDL change [2, 3] | Physical activity improvements [2, 3] | Quality of life (EQ5D-VAS) change [2, 3] | Smoking cessation [2, 3] | LDL change [2, 4] | Physical activity improvements [2, 4] | Quality of life (EQ5D-VAS) change [2, 4] | Smoking cessation [2, 4] | BMI; average decrease in weight ([2]; Patients having a BMI >30, group not stated) | patient deaths during the usage of the invention ([2]; six months)
CC(C)C[C@H](CN)CC(=O)O [A, pregabalin] | dry mouth, nausea | dizziness, tiredness | – | – | – | – | – | – | – | – | – | –
CCCSc1nc(N[C@@H]2C[C@H]2c2ccc(F)c(F)c2)c2nnn([C@@H]3C[C@H](OCCO)[C@@H](O)[C@H]3O)c2n1 [Ticagrelor, ticagrelor] | – | – | −1.8 | 50% | +14.7 | −80% | −1.0 | 32% | +8.4 | −45% | 5% | No patients in the study died
